≈ marks a conversion by molar mass, not a printed value.
Key:
[1] = molecular target: T1, FAS (fatty acid synthase), Cancer (Homo sapiens, UniProt P49327); test: FAS enzymatic assay, crude extract of breast cancer cell line ZR-75-1 (NADPH oxidation); assay type: biochemical; conditions: ZR-75-1 crude cell extract, 30 min incubation at 10°-25° C.; read-out: IC50 for inhibition of FAS activity, Cancer
T1 construct: using a crude cell extract of a cancer cell line or Saccharomyces cerevisiae; endogenous in cells; host or cells: ZR-75-1 breast cancer cell line (crude dialyzed digitonin extract)
Description: Preparation of crude cell extracts: The potential of compounds to inhibit FAS enzymatic activity was determined using a crude cell extract of a cancer cell line or Saccharomyces cerevisiae. The breast cancer cell line ZR-75-1 was grown to confluence in RPMI with 10$FBS. The cells were harvested by scraping, washed once with cold phosphate buffered saline pH 7.5 and stored at -80° C. Extracts were prepared by thawing the cells in the presence of 4 vol. of 25 mM potassium phosphate pH 7.5, 1 mM EDTA, 1 mM DTT, 0.4% digitonin, 0.7 μg/ml pepstatin, 2 μg/ml aprotinin and 0.5 μg/ml leupeptin. Cells were homogenized with a Dounce type homogenizer for 20 strokes. Extracts were cleared by two sequential centrifugations at 30,000 xg, for 30 min each. The extract was dialyzed against 125 mM potassium phosphate pH 6.6, 1 mM EDTA, 1 mM DTT using a 100,000 molecular weight cut off membrane. The extract stored at 4° C. with 3 mM sodium azide. Yeast extracts were prepared from freeze-dried yeast. Yeast were reconstituted in 5 vol/g 100 mM potassium phosphate pH 6.5. Cells were harvested by centrifugation at 3,000 xg for 10 min. Cells were washed with 5 vol 100 mM potassium phosphate pH 6.5 and suspended in 2 vol. 125 mM potassium phosphate pH 6.6, 1 mM EDTA, 1 mM DTT, 0.7 μg/ml pepstatin, 2 μg/ml aprotinin and 0.5 μg/ml leupeptin. Sterile 0.5 mm glass beads were added (1/2 vol) and the mixture vortex vigorously for four 30 s intervals with 30 s rests on ice between mixes. Extracts were cleared by centrifugation and dialyzed as described above.
Testing of compound activity: Compounds were tested for their ability to inhibit FAS enzymatic activity by incubating the compounds with the crude cell extracts and measuring residual FAS activity. The compounds were mixed with a crude cell extract to the desired concentration and the mixture incubated at 10°-25° C. for 30 min. Residual FAS activity was measured as described below. The concentration of compound giving 50% maximal activity defined the IC50 which was calculated from a 4-parameter equation of the dose-response curves.
(§1) Enzymatic assay conditions: The FAS enzyme activity was measured by monitoring the oxidation of NADPH spectrophotometrically (Dils, R. and E. M. Carey, 1975, Fatty acid synthase from rabbit mammary gland. Methods in Enzymol. 35:74-83). A 50 μl portion of an extract or extract-compound mixture was mixed with 50 μl 250 mM potassium phosphate pH 6.6, 40 μM acetyl-CoA, 200 μM malonyl-CoA, 1 mM NADPH and 2 mM DTT. The initial rate of NADPH oxidation at 25° C. was measured by monitoring the decrease in absorbance at 340 nm.

[2] = molecular target: T2, FAS (fatty acid synthase), Yeast (Saccharomyces cerevisiae, UniProt P19097); test: FAS enzymatic assay, crude yeast extract (NADPH oxidation); assay type: biochemical; conditions: 30 min incubation at 10°-25° C., read-out: IC50 for inhibition of FAS activity, Yeast
T2 construct: Yeast extracts were prepared from freeze-dried yeast; endogenous in cells; host or cells: freeze-dried Saccharomyces cerevisiae (crude glass-bead extract, dialyzed)
Description: Preparation of crude cell extracts: The potential of compounds to inhibit FAS enzymatic activity was determined using a crude cell extract of a cancer cell line or Saccharomyces cerevisiae. The breast cancer cell line ZR-75-1 was grown to confluence in RPMI with 10$FBS. The cells were harvested by scraping, washed once with cold phosphate buffered saline pH 7.5 and stored at -80° C. Extracts were prepared by thawing the cells in the presence of 4 vol. of 25 mM potassium phosphate pH 7.5, 1 mM EDTA, 1 mM DTT, 0.4% digitonin, 0.7 μg/ml pepstatin, 2 μg/ml aprotinin and 0.5 μg/ml leupeptin. Cells were homogenized with a Dounce type homogenizer for 20 strokes. Extracts were cleared by two sequential centrifugations at 30,000 xg, for 30 min each. […]
Testing of compound activity: Compounds were tested for their ability to inhibit FAS enzymatic activity by incubating the compounds with the crude cell extracts and measuring residual FAS activity. […] Residual FAS activity was measured as described below. […]
as §1, with “A 50 μl portion of an extract or extract-compound mixture was mixed with 50 μl 250 mM potassium phosphate pH 6.6, 40 μM acetyl-CoA, 200 μM malonyl-CoA, 1 mM NADPH and 2 mM DTT.” left out

SKBr 3 cells = test: Growth inhibition assay, SKBr 3 cells (crystal violet); assay type: cell-based; conditions: Homo sapiens, SK-BR-3, 72 h; 3 days with compound
Description: (§2) Cells were seeded at 5×10^3 per well into 96-well plates and incubated for 3 days in RPMI, 10% FBS at 37° C. in a 5% CO2 :95% air atmosphere. Medium was removed and replaced with media plus compound. Compound doses were 10 serial dilutions from 200 μg/ml to 0.39 μg/ml. Cells were returned to the incubator for 3 additional days. The medium was removed and plates were washed twice with phosphate buffered saline. Wells were filled with 100 μl of 0.2% crystal violet in 2% ethanol for 10 min. Stain was removed from the wells and the plates were washed 3 times with distilled H2 O. After at least 4 h of drying wells were filled with 100 μl of 1% SDS and plates were shaken to disolve any dye crystals. Absorbance at 560 nm minus 650 nm in each well was measured using a Molecular Devices plate reader. IC50 values were calculated from 4-parameter curve-fits of the dose-response curves.

HS 27 cells = test: Growth inhibition assay, HS 27 cells (crystal violet); assay type: cell-based; conditions: Homo sapiens, HS27, 72 h; 3 days with compound
Description: as §2

Candida albicans = test: Control organism susceptibility, Candida albicans; assay type: cell-based; conditions: read-out: MIC (control organism)
HIV protease = conditions: cited from earlier work
[3] = system: myristoylation of proteins; conditions: cited from earlier work
[4] = system: Mycobacterium tuberculosis; conditions: cited from earlier work
[5] = system: bacteria, actinomycetes, and mycobacteria; conditions: cited from earlier work
[6] = system: mammary, colon, and prostatic carcinoma lines; conditions: U.S. Ser. No. 08/096,908 and its CIP; cited from earlier work
fatty acid synthase = conditions: cited from earlier work
M. tuberculosis = test: Radiometric (Bactec) susceptibility test, M. tuberculosis; assay type: cell-based; conditions: Mycobacterium tuberculosis
[7] = system: fatty acid synthase expression in MCF-7 cells; conditions: Northern analysis; cited from earlier work
[8] = system: panel of cell lines with varying levels of FAS enzyme activity; test: Anti-proliferative effect on a panel of cell lines with varying levels of FAS; assay type: cell-based
acyl CoA-synthetase = conditions: for long-chain fatty acids; cited from earlier work
[9] = molecular target: rat liver acyl-CoA synthetase; conditions: read-out: concentration causing 50% inhibition of acyl-CoA synthetase; cited from earlier work
Raji cells = conditions: cited from earlier work
Vero cells = conditions: cited from earlier work
Hela cells = conditions: cited from earlier work

T1 sequence (P49327 whole entry): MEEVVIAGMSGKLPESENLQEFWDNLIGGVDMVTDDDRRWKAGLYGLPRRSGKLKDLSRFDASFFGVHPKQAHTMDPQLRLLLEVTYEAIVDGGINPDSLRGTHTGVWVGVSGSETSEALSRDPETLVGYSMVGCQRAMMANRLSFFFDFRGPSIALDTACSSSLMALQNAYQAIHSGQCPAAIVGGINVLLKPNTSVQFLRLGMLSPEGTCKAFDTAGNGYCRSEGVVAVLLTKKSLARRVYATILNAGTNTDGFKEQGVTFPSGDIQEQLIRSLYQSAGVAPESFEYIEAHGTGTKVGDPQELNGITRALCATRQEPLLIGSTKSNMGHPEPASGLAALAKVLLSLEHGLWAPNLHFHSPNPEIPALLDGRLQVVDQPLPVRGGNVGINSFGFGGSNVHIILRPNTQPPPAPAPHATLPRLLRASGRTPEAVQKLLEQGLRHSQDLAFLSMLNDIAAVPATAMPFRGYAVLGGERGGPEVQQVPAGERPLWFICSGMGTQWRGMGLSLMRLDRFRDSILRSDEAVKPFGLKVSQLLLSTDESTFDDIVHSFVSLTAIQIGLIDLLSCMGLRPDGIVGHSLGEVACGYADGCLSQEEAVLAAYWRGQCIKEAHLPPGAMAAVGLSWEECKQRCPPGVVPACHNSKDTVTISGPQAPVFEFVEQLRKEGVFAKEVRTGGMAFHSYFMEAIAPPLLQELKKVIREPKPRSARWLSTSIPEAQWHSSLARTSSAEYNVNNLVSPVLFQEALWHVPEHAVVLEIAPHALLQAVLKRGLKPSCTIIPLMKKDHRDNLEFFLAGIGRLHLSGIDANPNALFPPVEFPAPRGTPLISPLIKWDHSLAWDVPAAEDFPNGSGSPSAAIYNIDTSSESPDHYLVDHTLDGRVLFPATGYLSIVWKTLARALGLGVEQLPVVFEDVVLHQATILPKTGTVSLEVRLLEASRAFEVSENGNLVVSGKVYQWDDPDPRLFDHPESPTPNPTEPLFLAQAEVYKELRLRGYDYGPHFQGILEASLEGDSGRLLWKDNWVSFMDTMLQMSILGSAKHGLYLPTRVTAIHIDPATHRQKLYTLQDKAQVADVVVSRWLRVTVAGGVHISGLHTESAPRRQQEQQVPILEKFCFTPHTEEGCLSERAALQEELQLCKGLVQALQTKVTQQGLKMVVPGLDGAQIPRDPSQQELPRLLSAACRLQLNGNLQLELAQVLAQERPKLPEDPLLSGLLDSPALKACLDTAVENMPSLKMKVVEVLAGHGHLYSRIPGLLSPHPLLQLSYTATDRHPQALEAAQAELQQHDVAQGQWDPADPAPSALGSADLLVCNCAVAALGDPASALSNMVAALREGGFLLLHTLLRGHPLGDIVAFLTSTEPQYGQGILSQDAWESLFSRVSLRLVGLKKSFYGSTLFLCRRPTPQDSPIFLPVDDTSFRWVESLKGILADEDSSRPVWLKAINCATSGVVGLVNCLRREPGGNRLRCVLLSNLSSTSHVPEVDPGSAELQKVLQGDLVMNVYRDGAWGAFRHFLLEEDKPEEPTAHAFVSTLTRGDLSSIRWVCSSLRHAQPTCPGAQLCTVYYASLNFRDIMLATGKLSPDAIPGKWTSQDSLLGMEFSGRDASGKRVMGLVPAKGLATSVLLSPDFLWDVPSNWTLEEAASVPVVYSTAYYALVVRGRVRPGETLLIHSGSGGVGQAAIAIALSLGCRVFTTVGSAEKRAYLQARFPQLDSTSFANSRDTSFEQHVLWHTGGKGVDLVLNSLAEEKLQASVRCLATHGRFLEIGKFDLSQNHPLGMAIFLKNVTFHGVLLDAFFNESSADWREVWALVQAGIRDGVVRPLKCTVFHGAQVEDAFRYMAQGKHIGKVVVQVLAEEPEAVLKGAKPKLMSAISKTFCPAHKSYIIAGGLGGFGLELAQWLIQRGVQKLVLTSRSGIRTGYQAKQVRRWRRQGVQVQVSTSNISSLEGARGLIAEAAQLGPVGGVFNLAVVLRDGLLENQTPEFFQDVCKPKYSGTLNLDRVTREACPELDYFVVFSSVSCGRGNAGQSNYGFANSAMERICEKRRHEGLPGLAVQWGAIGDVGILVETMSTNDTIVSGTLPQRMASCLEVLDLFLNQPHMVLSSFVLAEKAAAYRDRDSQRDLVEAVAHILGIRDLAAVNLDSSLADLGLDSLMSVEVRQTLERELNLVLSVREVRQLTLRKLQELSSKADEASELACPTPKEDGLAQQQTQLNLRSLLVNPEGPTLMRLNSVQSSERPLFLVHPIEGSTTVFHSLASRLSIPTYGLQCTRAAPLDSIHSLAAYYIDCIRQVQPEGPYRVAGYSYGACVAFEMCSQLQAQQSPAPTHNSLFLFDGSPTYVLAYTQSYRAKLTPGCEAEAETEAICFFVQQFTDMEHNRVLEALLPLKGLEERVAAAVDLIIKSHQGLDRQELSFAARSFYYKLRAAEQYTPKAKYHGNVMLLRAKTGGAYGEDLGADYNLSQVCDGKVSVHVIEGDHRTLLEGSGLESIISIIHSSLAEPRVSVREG

Compound | IC50 [1] [µM] | IC50 (SKBr 3 cells) [µM] | IC50 (HS 27 cells) [µM] | other results
C/C=C/C/C=C/CCC(=O)[C@H]1O[C@H]1C(N)=O [CTC002, (2S) (3R) 2,3-epoxy-4-oxo-7,10 dodecadienoyl amide] | 8.6 | 20 | 20 | IC50 [2]: 0.4 µM; MIC (Candida albicans): < 1.5 µg/mL; inhibition of viral HIV protease, concentration (HIV protease): 5 mg/mL; inhibition of myristoylation of proteins [3]: does not specifically inhibit; in vitro activity against Mycobacterium tuberculosis [4]: no activity; in vitro activity against some bacteria, actinomycetes, and mycobacteria [5]: some in vitro activity; growth inhibition of carcinoma lines [6]: potently inhibit the growth; type of inhibition of fatty acid synthase (fatty acid synthase): specific and non-competitive inhibitor
Cc1cccc(/C=C/CCC2C=CC(=O)O2)c1 (centres unmarked) [CTC003] | > 100 | > 50 | > 50 | –
Cc1cccc(/C=C/CCC(O)C2OC2C(N)=O)c1 (centres unmarked) [CTC004] | > 100 | > 50 | > 50 | –
Cc1cccc(/C=C/CCCN2C(=O)C=CC2=O)c1 [CTC005] | > 78 | > 50 | > 50 | –
Cc1cccc(/C=C/CCC(=O)C2OC2C(N)=O)c1 (centres unmarked) [CTC006] | 10.4 | 21 | 32 | IC50 [2]: 82 µM; MIC (M. tuberculosis): 25 µg/mL (≈ 96.4 µM)
C/C=C/C/C=C/CCN1C(=O)C=CC1=O [CTC013] | > 97 | 63 | 63 | –
C/C=C/C/C=C/CCCN1C(=O)C=CC1=O [CTC014] | > 92 | > 50 | > 50 | –
N[C@@H](Cc1cc(I)c(Oc2ccc(O)c(I)c2)c(I)c1)C(=O)O [T3, reference compound] | – | – | – | effect on fatty acid synthase expression [7]: no effect
CCCCCCCCCCCCCCOc1ccc(C(=O)O)o1 [TOFA] | – | – | – | anti-proliferative effect [8]: anti-proliferative effect
CCCCCC/C=C/C=C/C=N/NN=O [Triacsin A] | – | – | – | mechanism of inhibition of acyl CoA-synthetase (acyl CoA-synthetase): competitive
CCC/C=C/C/C=C/C=C/C=NN=NO [Triacsin C, 1-hydroxy-3-(E, E, E-2',4',7'-undecatrienylidine) triazene] | – | – | – | IC50 [9]: 8.7 µM; growth inhibition, concentration (Raji cells): 1.0 µM; growth inhibition of Vero cells (Vero cells): inhibit growth; growth inhibition of Hela cells (Hela cells): inhibit growth
CC(=O)[C@H]1CC[C@H]2[C@@H]3CCC4=CC(=O)CC[C@]4(C)[C@H]3CC[C@]12C [progesterone, reference compound] | – | – | – | increase in fatty acid synthase expression [7]: 5-10 fold
insulin growth factor-1: insulin growth factor-1 | – | – | – | effect on fatty acid synthase expression [7]: only slightly stimulatory
insulin: insulin | – | – | – | effect on fatty acid synthase expression [7]: only slightly stimulatory

Source: patent US5539132A, “Cerulenin compounds for fatty acid synthesis inhibition” (Johns Hopkins University, priority 1994, dated 1996)
